Literature values as cited in patent US20160101176A1, “POLYMERIC HYDROGEL PHARMACEUTICAL COMPOSITIONS WITH ON-DEMAND RELEASE OF A DRUG IN RESPONSE TO A ELECTRICAL STIMULUS” (UNIVERSITY OF THE WITWATERSRAND, JOHANNESBURG, priority 2013, published 2016).

Tests used:
[1] = rat's cardio-vascular system; Elahi et al., 2009
plasma proteins = conditions: Raveendran et al., 1992

COc1ccc2c(c1)c(CC(=O)O)c(C)n2C(=O)c1ccc(Cl)cc1 [indomethacin]
t1/2 [1]: 7 to 10 h
protein binding (plasma proteins): highly protein bound
